# Measurements taken from patent publication US11426441B2, “Composition comprising protein phosphatase 1 inhibitory peptide for treating vascular diseases” (BethphaGen Inc., priority 2016, dated 2022).
# No end group written: not given here.
# How the values were obtained:
# [1] = test system: phospholamban; experiment: PLB phosphorylation in PASMCs (western blotting); assay type: cell-based; conditions: synthetic phenotype, 3 μM
# Protocol: PASMCs were incubated in DMEM supplemented with 0.1% (v/v) FBS for 3 days to induce a contractile phenotype, followed by incubation in DMEM supplemented with 10% (v/v) FBS for 3 days to induce a synthetic phenotype in the presence of 3 μM ψPLB-SE. (18a) Protein expression was quantitatively analyzed through western blotting using antibodies against phospho-PLB (ser16), total PLB, and GAPDH. Data are expressed as the means±SD (n=3˜4; *, P<0.05 vs contractile; #, P<0.05 vs Synthetic-con).
# Human coronary smooth muscle cells (HCSMCs), pulmonary arterial endothelial cells (PAECs), and pulmonary arterial smooth muscle cells (PASMCs) were purchased from Lonza and cultured in EBM or SmBM (Lonza) supplemented with 0.5 mg/mL hEGF, 5 mg/mL insulin, 1 mg/mL hFGF, 50 mg/mL gentamicin/amphotericin-B, and 5% fetal bovine serum. All the cells were cultured at 37 in 5% (v/v) CO2 and 95% (v/v) air. RASMCs and HCSMCs were, respectively, plated at the densities of 1×10^4 cells/cm^2 and 1×10^5 cells/cm^2 for immunostaining and western blotting experiments.
# Vascular smooth muscle cells (VSMCs) were homogenized in a minimal volume of 50 mM Tris-HCl, pH 7.4, supplemented with a broad-spectrum protease inhibitor cocktail (Calbiochem). […] The blots were scanned and quantified using LAS software.
# [2] = test system: balloon-injured rat carotid arteries; experiment: Balloon-induced injury of rat carotid artery; assay type: in vivo
# Description: The left common carotid artery was injured by an infiltration of 2F Fogarty balloon embolectomy catheter. In brief, the rats were anesthetized with isoflurane gas (70% N2O/30% O2), the left external carotid artery was exposed, and branches thereof were electro-coagulated. A catheter was inserted approximately 1 cm into the external carotid artery via a transverse arteriotomy, and endothelial denudation was achieved by three passes of the catheter along the common carotid artery. After removal of the catheter, the penetrated area was clamped, and 5 μg of the peptides solubilized in 200 μL of phosphate-buffered saline (PBS) was injected. After incubation for 15 minutes, the sealed carotid artery was re-opened to resume blood flow. The rats were allowed to recover for 10 days, unless otherwise stated. For histological analyses, the rats were anesthetized, and the common carotid artery was excised after transcardiac perfusion with heparinized saline containing 3.7% (w/v) formaldehyde. The specimens were embedded in paraffin, and paraffin blocks were sectioned with the Leica RM2255 rotary microtome. Two serial tissue sections (thickness, 4 μm) were obtained from the centre of the common carotid artery and stained with haematoxylin and eosin. The lamina, internal elastic lamina, and external elastic lamina were measured with the National Institutes of Health ImageJ software (version 1.62). The intimal and medial areas were determined by subtracting the laminal area from the internal elastic laminal area and by subtracting the internal elastic laminal area from the external elastic laminal area, respectively. The values from two serial sections per rat were averaged for analysis.
# The carotid artery was fixed in 4% (w/v) paraformaldehyde for 48 hours at room temperature and then washed with PBS. After embedding the specimens in paraffin and sectioning the tissue blocks, the sections were treated with hydrogen peroxide to quench endogenous peroxidase activity, followed by boiling in antigen retrieval buffer. […]
# [3] = test system: SERCA2a; conditions: in vitro and ex vivo; Oh J G et al. (2013); cited from earlier work
# [4] = test system: monocrotaline (MCT)-induced pulmonary arterial hypertension mice; experiment: Monocrotaline-induced pulmonary arterial hypertension in mice; assay type: in vivo, mouse
# Protocol: Vascular smooth muscle cells (VSMCs) were homogenized in a minimal volume of 50 mM Tris-HCl, pH 7.4, supplemented with a broad-spectrum protease inhibitor cocktail (Calbiochem). The proteins were separated by SDS-PAGE and then transferred to polyvinylidene fluoride membranes (Schleicher & Schuell). After blocking with 5% (w/v) non-fat milk for 1 hour and washing with TBST, the membranes were incubated with antibodies against SERCA2a, SERCA2b (21st century biochemical), PCNA (abcam), GAPDH (Sigma-Aldrich), phospho-eNOS, eNOS, phospho-eIF2α, eIF2α (cell signaling), Vimentin, α-SMA, BMPR2 (Santa cruz), phospho-Akt, Akt (cell signaling), phospho-phospholamban (Merck), and Phospholamban (cell signaling). The membranes were then incubated with horseradish peroxidase-conjugated secondary antibodies (Jackson ImmunoResearch, West Grove, Pa., USA) and developed using a chemiluminescent substrate (Dogen). The blots were scanned and quantified using LAS software.
# As for mice, fifteen C57BL/6 mice (Damool science, Korea) weighing 25-30 g were treated with 600 mg/kg MCT five times a week. Out of the mice, eight animals for a comparison group were administered with ψPLB-SE peptide four times at intervals of one week from day 15 after the administration of MCT. Five animals for a control group were administered with a control peptide. The mice were sacrificed one week after last administration, and then histological analysis and molecular biological experiments were conducted.
# Pulmonary tissues were taken from animal models, fixed with 4% (w/v) paraformaldehyde for 5 days at room temperature, and then washed with PBS. After embedding the specimens in paraffin and sectioning the tissue blocks into a thickness of 7 μm, the sections were stained with haematoxylin and eosin (Sigma Aldrich) to investigate the vascular thickness and inflammation, and the sections were stained with Masson-trichrome (Sigma Aldrich) to investigate the extent of perivascular fibrosis, and then observed through an optical microscope.
# The pulmonary tissues were obtained from rats and mice, and the cytokine levels in the tissues were quantitatively analyzed using human proinflammatory 10plex Meso Scale Diagnostics plates (MSD; Rockville, Md.).
# Quantitative RT-PCR was performed using SYBR premix Ex Taq™ (Takara), though which the transcriptional levels of target genes were analyzed. RNA was isolated from pulmonary tissues using trizole (ambion), and synthesized into cDNA. Quantitative RT-PCR conditions were 40 cycles: 10 sec at 94° C., 30 sec at 59° C., and 10 sec at 72° C.
sequence,measurement,setting,value
"RAETIEMPQ (not fully specified) [ψPLB-SE, 9-mer PP1 decoy peptide mimicking phosphorylated PLB; conjugated via GGG linker to cell penetrating peptide dNP2 or TAT]",phosphorylation of the serine 16 residue of phospholamban,[1],restored
same,"in vivo VSMC proliferation (α-SMA, PCNA immunostaining)","[2]; balloon-injured rat carotid artery, peptide administered to the injured site",inhibits
same,neointimal formation (haematoxylin and eosin staining),"[2]; balloon-injured rat carotid artery, peptide administered to the injured site, compared with control peptide",inhibited
same,reduction of SERCA2a level by balloon angioplasty-mediated injury (immunostaining),[2]; carotid artery sections,inhibited
same,SERCA2a activity in the heart after ischemia/reperfusion,[3],restored
same,expression level of SERCA2a,[4]; mouse pulmonary tissue,increased
same,fibrosis extent of vascular adventitia (Masson-trichrome staining),[4]; mouse pulmonary tissue,attenuated
same,"increases in the protein and mRNA expression of TGF-β, Collagen 1, vimentin, and α-SMA",[4]; mouse pulmonary tissue,attenuated
same,"proinflammatory cytokines (GM-CSF, TNF-α, IL-17, IL-1β, IL-6, TGF-β) levels",[4]; mouse pulmonary tissue,restored to nearly to the normal levels
same,eNOS phosphorylation level (eNOS activity),[4]; mouse pulmonary tissue proteins,increased
same,increase in vascular thickening (hematoxylin and eosin staining),"[4]; mouse pulmonary tissue, MCT 600 mg/kg, peptide via respiratory inhalation once a week for 4 weeks from the second week",attenuated
same,increase in monocyte infiltration,"[4]; mouse pulmonary tissue, hematoxylin and eosin staining",attenuated
same,"mRNA expression levels of TNF-α, IL-17, IL-1β, F4/80, and MCP-1","[4]; mouse pulmonary tissue, quantitative RT-PCR",reduced
